According to patent US8097282B2, “Methods of administering liquid droplet aerosols of nanoparticulate drugs” (Alkermes Pharma Ireland Limited, priority 1995, dated 2012):

Tests used:
[1] = test system: rabbit's pulmonary region; assay: Computed tomography (CT) after administration of ultrasonically nebulized formulation to an intubated anesthetized rabbit; assay type: in vivo; conditions: ultrasonic nebulizer, several minutes, 30% suspension in 6% F108
Experimental: (§1) In this example, a suspension of WIN 68209 (30%) in aqueous F108 surfactant (6%) was prepared by conventional roller milling techniques (jar mill, zirconium silicate beads, 7 days milling time). The mean particle size of the resultant distribution was 196 nm. The formulation was administered to an anesthetized rabbit as follows: Several mL of formulation was placed in an ultrasonic nebulizer (DeVilbiss AeroSonic™) which was connected in-line with a mechanical ventilator, terminating in a suitable endotracheal tube. The rabbit was then intubated and administered the nebulized formulation for several minutes.

[2] = Mean particle size of roller-milled WIN 68209 suspension; assay type: physicochemical; conditions: 30% suspension in aqueous F108 surfactant (6%), 7 days roller milling
Experimental: as §1

[3] = assay type: physicochemical
Experimental: Nanoparticle Preparation and Characterization. Nanoparticles were prepared by media milling a suspension of 5% beclomethasone diproprionate in an aqueous solutions of PVA. Thus, the PVA was the surface modifier. The resulting particle size distribution was determined by dynamic light scattering. The particle size distribution was periodically monitored throughout the course of the study. […] In addition, particle size of the diluted dispersions remained constant for at least the duration of the experiment.

SMILES	CT scans of pulmonary region after nebulized administration [1]	mean particle size [2]	chemical stability [3]	particle size stability [3]	particle size distribution ([3]; nanoparticles in 2.5% polyvinyl alcohol)
CCOC(=O)C=C(COC(=O)c1c(I)c(NC(C)=O)c(I)c(NC(C)=O)c1I)OCC [WIN 68209, benzoic acid, 3,5-bis(acetylamino)-2,4,6triodo-, 4(ethyl-3-ethoxy-2-butenoate) ester]	showed the presence of radiopaque contrast agent in the region	196 nm			
CCC(=O)OCC(=O)[C@@]1(OC(=O)CC)[C@@H](C)C[C@H]2[C@@H]3CCC4=CC(=O)C=C[C@]4(C)[C@@]3(Cl)[C@@H](O)C[C@@]21C.O [beclomethasone diproprionate, Beclomethasone diproprionate]			neither was there any evidence of chemical instability	remained constant throughout the course of the study	0.26±0.13 micrometer
